The values below come from ChEMBL document CHEMBL3244225, “Synthesis and biological activity of some vinyl-substituted 2-nitroimidazoles” (J Med Chem, 1977).

The test system of series [1] is Staphylococcus aureus. The series can be described thus: Antimicrobial activity against Staphylococcus aureus Tour by tube dilution method. The series is classed as functional.
Series [2] has as its system Streptococcus pyogenes. The series can be described thus: Antimicrobial activity against Streptococcus haemolyticus C 203 by tube dilution method. Format: functional.
Series [3] deals with Streptococcus pneumoniae. The series can be described thus: Antimicrobial activity against Diplococcus pneumoniae UC41 by tube dilution method. The series is classed as functional.
Series [4] relates to Clostridium perfringens. The series can be described thus: Antimicrobial activity against Clostridium perfringens ISS 30543 by tube dilution method. Format: functional.
Series [5] concerns Proteus vulgaris. The experiment in a line: Antimicrobial activity against Proteus vulgaris X19 H ATCC 881 by tube dilution method. The series is classed as functional.
Series [6] relates to Escherichia coli. The experiment in a line: Antimicrobial activity against Escherichia coli SKF 12140 by tube dilution method. Format: functional.
Series [7] concerns Shigella sonnei. The series can be described thus: Antimicrobial activity against Shigella sonnei ATCC 9290 by tube dilution method. Format: functional.
The test system of series [8] is Salmonella typhimurium. The series can be described thus: Antimicrobial activity against Salmonella typhimurium Kh by tube dilution method. The note with it: Salmonella enterica. Format: functional, Salmonella enterica subsp. enterica serovar Typhimurium.
The subject of series [9] is Klebsiella pneumoniae. The series can be described thus: Antimicrobial activity against Klebsiella pneumoniae I.S.M. by tube dilution method. The series is classed as functional.
In series [10] the test system is Pseudomonas aeruginosa. The experiment in a line: Antimicrobial activity against Pseudomonas aeruginosa ATCC 10145 by tube dilution method. Format: functional.
The test system of series [11] is Candida albicans. The series can be described thus: Antimicrobial activity against Candida albicans SKF 2270 by tube dilution method. The series is classed as functional.
Series [12] deals with Trichophyton mentagrophytes. The experiment in a line: Antimicrobial activity against Trichophyton mentagrophytes SKF 17410 by tube dilution method. Format: functional.
Series [13] relates to Mycobacterium tuberculosis. The series can be described thus: Antimicrobial activity against Mycobacterium tuberculosis ATCC 9360 by tube dilution method. The series is classed as functional.
Series [14] concerns Mycoplasmoides gallisepticum. The experiment in a line: Antimicrobial activity against Mycoplasma gallisepticum H21 C.Z.B. by tube dilution method. The series is classed as functional.
The subject of series [15] is Trichomonas vaginalis. The experiment in a line: Trichomonastatic activity against Trichomonas vaginalis by tube dilution method. Format: functional.
In series [16] the test system is Staphylococcus aureus. The series can be described thus: Antimicrobial activity against Staphylococcus aureus infected in mouse at 200 mg/kg, po. Format: functional, organism-based. Further details: dose 200 mg/kg.
In series [17] the test system is Staphylococcus aureus. The experiment in a line: Antimicrobial activity against Staphylococcus aureus infected in mouse at 200 mg/kg, sc. Also noted: dose 200 mg/kg. The series is classed as functional, organism-based.
The nature of series [18]: Toxicity in po dosed mouse infected with Escherichia coli. The following applies: in vivo. The series is classed as organism-based.
Series [19] is described as follows: Toxicity in sc dosed mouse infected with Escherichia coli. Format: organism-based. The note with it: in vivo.
Series [20] relates to Trichomonas vaginalis. The experiment in a line: Trichomonacidal activity against Trichomonas vaginalis by tube dilution method. The series is classed as functional.
The subject of series [21] is Trichomonas vaginalis. The experiment in a line: Antimicrobial activity against Trichomonas vaginalis infected in sc dosed mouse. The series is classed as functional.
In series [22] the test system is Trichomonas vaginalis. The experiment in a line: Ratio of metronidazole ED50 to compound ED50 for Trichomonas vaginalis infected in sc dosed mouse. Format: functional.
Series [23] is described as follows: Toxicity in po dosed mouse infected with Trichomonas vaginalis. Format: organism-based. The following applies: in vivo.
Series [24] deals with Escherichia coli. The experiment in a line: Antimicrobial activity against Escherichia coli infected in mouse at 250 mg/kg, po. The series is classed as functional, organism-based. Also noted: dose 250 mg/kg.
Series [25] has as its system Escherichia coli. The series can be described thus: Antimicrobial activity against Escherichia coli infected in mouse at 250 mg/kg, sc. Also noted: dose 250 mg/kg. The series is classed as functional, organism-based.
Series [26] relates to Escherichia coli. The series can be described thus: Antimicrobial activity against Escherichia coli infected in mouse at 300 mg/kg, po. The series is classed as functional, organism-based. Also noted: dose 300 mg/kg.
The subject of series [27] is Escherichia coli. The series can be described thus: Antimicrobial activity against Escherichia coli infected in mouse at 200 mg/kg, sc. Further details: dose 200 mg/kg. The series is classed as functional, organism-based.

In brackets after ≈: the same amount, converted by molar mass. Activity calls are given as the source filed them. No cut-off for these calls is given here. Bounds are passed on as bounds.

Turning to `Cn1c(/C=C/C=[N+](/C)[O-])cnc1[N+](=O)[O-]`, the MIC (as a rule, the lowest concentration that inhibits growth of the organism) was 10 µg/mL (≈ 47.6 µM) in series [1]; 20 µg/mL (≈ 95.2 µM) in series [2]; 100 µg/mL (≈ 476 µM) in series [3]; 5 µg/mL (≈ 23.8 µM) in [4]; > 100 µg/mL in series [5]; 50 µg/mL (≈ 238 µM) in series [6]. The MIC is 20 µg/mL (≈ 95.2 µM) in [7]; 20 µg/mL (≈ 95.2 µM) in series [8]; 20 µg/mL (≈ 95.2 µM) in [9]; > 100 µg/mL in [10]; > 100 µg/mL in series [11]; > 100 µg/mL in [12]. Besides, the MIC in series [13] was 100 µg/mL (≈ 476 µM); in series [14], 10 µg/mL (≈ 47.6 µM); in [15] it was > 100 µg/mL. Further, the result in series [16] and in series [17] was Active. Moreover, the LD50 in series [18] and in [19] was 700 mg/kg in each case.
`Cc1cnc([N+](=O)[O-])n1CCOS(C)(=O)=O`: the MIC in [1] is 100 µg/mL (≈ 401 µM); in series [2] it was 100 µg/mL (≈ 401 µM); in [3], > 100 µg/mL; in series [4] it was 20 µg/mL (≈ 80.2 µM); in [5], > 100 µg/mL; in series [6] it was 100 µg/mL (≈ 401 µM). The MIC is 100 µg/mL (≈ 401 µM) in series [7]; 100 µg/mL (≈ 401 µM) in series [8]; > 100 µg/mL in [9]; > 100 µg/mL in series [10]; > 100 µg/mL in series [11]; > 100 µg/mL in series [12]. Also, the MIC in series [13] was > 100 µg/mL; in series [14] it was > 100 µg/mL; in series [15] it was 50 µg/mL (≈ 201 µM); in series [20], 100 µg/mL (≈ 401 µM). Besides, the ED50 – broadly, the dose at which the effect has come halfway, by size or by number of responders – in series [21] worked out at 8.12 mg/kg. In addition, the “Ratio ED50” value in series [22] was found to be 0.6. Moreover, in [23], the LD50 – broadly, the dose expected to kill half of the subjects tested – stood at 800 mg/kg.
Consider `CC(/C=C/c1cnc([N+](=O)[O-])n1C)=[N+](\C)[O-]`, for which the MIC in [1] was found to be 50 µg/mL (≈ 223 µM); in series [2], 100 µg/mL (≈ 446 µM); in [3] it was 50 µg/mL (≈ 223 µM); in series [4], 10 µg/mL (≈ 44.6 µM); in series [5], 100 µg/mL (≈ 446 µM); in [6], 50 µg/mL (≈ 223 µM). The MIC in series [7] is 100 µg/mL (≈ 446 µM); in [8], 100 µg/mL (≈ 446 µM); in series [9] it was 100 µg/mL (≈ 446 µM); in series [10], > 100 µg/mL; in [11], > 100 µg/mL; in series [12], > 100 µg/mL. In addition, the MIC in [13] is > 100 µg/mL; in series [14] it was 50 µg/mL (≈ 223 µM); in [15], 50 µg/mL (≈ 223 µM); in [20] it was 100 µg/mL (≈ 446 µM). Further, the outcome in [24] and in [25] was inactive. Also, the LD50 in series [18], in series [19] and in series [23] was 700 mg/kg throughout. In addition, the “Ratio ED50” value in series [22] was found to be 2.6.
As for `Cn1c(/C=C/C=O)cnc1[N+](=O)[O-]`, the MIC turned out to be 20 µg/mL (≈ 110 µM) in series [1]; 10 µg/mL (≈ 55.2 µM) in series [2]; 5 µg/mL (≈ 27.6 µM) in series [3]; 20 µg/mL (≈ 110 µM) in [4]; 20 µg/mL (≈ 110 µM) in series [5]; 5 µg/mL (≈ 27.6 µM) in series [6]. In addition, the MIC in series [7] is 20 µg/mL (≈ 110 µM); in [8], 5 µg/mL (≈ 27.6 µM); in series [9] it was 10 µg/mL (≈ 55.2 µM); in series [10] it was 100 µg/mL (≈ 552 µM); in series [11] it was > 100 µg/mL; in series [12], 10 µg/mL (≈ 55.2 µM). Also, the MIC is 50 µg/mL (≈ 276 µM) in series [13], 50 µg/mL (≈ 276 µM) in series [14], 20 µg/mL (≈ 110 µM) in series [15] and 50 µg/mL (≈ 276 µM) in series [20]. In addition, in series [26], the outcome was inactive.
With `CC(=O)/C=C/c1cnc([N+](=O)[O-])n1C`, the MIC in series [1] was determined as 50 µg/mL (≈ 256 µM); in series [2] it was 100 µg/mL (≈ 512 µM); in series [3], 100 µg/mL (≈ 512 µM); in [4], 5 µg/mL (≈ 25.6 µM); in [5], 100 µg/mL (≈ 512 µM); in [6] it was 20 µg/mL (≈ 102 µM). In addition, the MIC was 50 µg/mL (≈ 256 µM) in series [7]; 50 µg/mL (≈ 256 µM) in [8]; 100 µg/mL (≈ 512 µM) in [9]; > 100 µg/mL in [10]; > 100 µg/mL in series [11]; 100 µg/mL (≈ 512 µM) in [12]. The MIC in [13] amounted to 20 µg/mL (≈ 102 µM); in series [14], 50 µg/mL (≈ 256 µM); in series [15], 10 µg/mL (≈ 51.2 µM); in series [20], 50 µg/mL (≈ 256 µM). For the same molecule, the outcome in series [27] was inactive. Also, in [22], the “Ratio ED50” value stood at 1.1. In series [23], the LD50 was 800 mg/kg.
